Experiment: recombinant UMI read abundance after kanamycin selection (control-corrected) (log10(CPM+1)); higher = more efficient recombination; extreme values may be limits of the assay; sequences stand for … in AGTGCAGAGAAAATCGGCCAGTTTTCTCTGCCTGCAGTCCGCATGCCGTGGGACCCCTTGGGTTCTAACCTGTTGCCTAGATTTATGCAGCGGACTGCCTTTCTCCCAAAGTGATAAACCGG…AGGTTGGTTTCACT; site = the 11-nt donor
Experimental: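 Pooled E. coli donor-specificity screen for the IS621 bridge recombinase. Each library member carries a reprogrammed 11-nt donor and a full-length LE bridge RNA expressed in cis from the natural promoter, with a paired donor-binding loop (8-nt LDG + 4-nt RDG) and a target-binding loop fixed to T5. It is co-electroporated with a T5 target plasmid; recombinase is induced with 0.07 mM IPTG and recombinants are selected on kanamycin. UMIs are counted as CPM, averaged over two biological replicates and corrected by the unselected control. Molecule = full bridge RNA written as DNA, built from the T5 scaffold: LDG = donor specificity nt 1-8, RDG = reverse complement of nt 8-11.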
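Also: IS621 bridge recombinase in Escherichia coli cells against a fixed T5 target plasmid.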

Row | Sequence | recombinant UMI read abundance (log10)
1 | ACTAGTGCATGGACCGGTTTTCCCGGTAATCCGTATTTGGT (site TCTAGTGCTAC) | 0.86
2 | ACTAGTTCATGGACCGGTTTTCCCGGTAATCCGTATTTGGT (site ACTAGTACTAC) | 0.293
3 | ACTAGTTCATGGACCGGTTTTCCCGGTAATCCGTATTTGGT (site ACTAGTCCTAC) | 0.0335
4 | ACTAGTTCATGGACCGGTTTTCCCGGTAATCCGTATTTGGT (site ACTAGTGCTAC) | 0.00523
5 | ACTAGTTCATGGACCGGTTTTCCCGGTAATCCGTATTTGGT (site ACTAGTTCTAC) | 1.89
6 | ACTCCAGCATGGACCGGTTTTCCCGGTAATCCGTATTTGCG (site ACTCCAGCTCG) | 0.0064
7 | ACTCCTGCATGGACCGGTTTTCCCGGTAATCCGTATTTGAC (site ACTCCTGCTGT) | 0.671
8 | ACTCGAACATGGACCGGTTTTCCCGGTAATCCGTATTTGAG (site ACTAGAACTCT) | 0.00419
9 | ACTCGAACATGGACCGGTTTTCCCGGTAATCCGTATTTGAG (site ACTCGAACTCT) | 1.16
10 | ACTCGAACATGGACCGGTTTTCCCGGTAATCCGTATTTGAG (site ACTGGAACTCT) | 0.00958
11 | ACTCGAACATGGACCGGTTTTCCCGGTAATCCGTATTTGAG (site ACTTGAACTCT) | 0.00429
12 | ACTCGGCCATGGACCGGTTTTCCCGGTAATCCGTATTTGGT (site ACTCGGCCTAC) | 0.00855
13 | ACTCTCCCATGGACCGGTTTTCCCGGTAATCCGTATTTGGA (site ACTCTCCCTTC) | 0.0237
14 | ACTGAAGCATGGACCGGTTTTCCCGGTAATCCGTATTTGTA (site ACTGAAGCTTA) | 2.5
15 | ACTGAGACATGGACCGGTTTTCCCGGTAATCCGTATTTGGT (site AATGAGACTAC) | 0.158
16 | ACTGAGACATGGACCGGTTTTCCCGGTAATCCGTATTTGGT (site ACTGAGACTAC) | 1.53
17 | ACTGAGACATGGACCGGTTTTCCCGGTAATCCGTATTTGGT (site AGTGAGACTAC) | 0.0694
18 | ACTGAGACATGGACCGGTTTTCCCGGTAATCCGTATTTGGT (site ATTGAGACTAC) | 0.541
19 | ACTGATGCATGGACCGGTTTTCCCGGTAATCCGTATTTGAC (site ACTGATGCTGT) | 2.08
20 | ACTGCACCATGGACCGGTTTTCCCGGTAATCCGTATTTGAG (site ACTGCACCTCT) | 0.0235
21 | ACTGCTACATGGACCGGTTTTCCCGGTAATCCGTATTTGGT (site ACTGCTACTAC) | 0.194
22 | ACTGTATCATGGACCGGTTTTCCCGGTAATCCGTATTTGCC (site ACAGTATCTTG) | 0
23 | ACTGTATCATGGACCGGTTTTCCCGGTAATCCGTATTTGCC (site ACTGTATCTGG) | 2.92
24 | ACTTACTCATGGACCGGTTTTCCCGGTAATCCGTATTTGAC (site ACTTACTCTGT) | 2.81

Row | Sequence | recombinant UMI read abundance (log10)
25 | ACTTCGACATGGACCGGTTTTCCCGGTAATCCGTATTTGCA (site ACTTCGACTTG) | 1.84
26 | ACTTCTGCATGGACCGGTTTTCCCGGTAATCCGTATTTGCC (site ACTTCTGCTGG) | 1.76
27 | ACTTCTTCATGGACCGGTTTTCCCGGTAATCCGTATTTGTC (site ACTTCTTCTGA) | 0
28 | ACTTGCTCATGGACCGGTTTTCCCGGTAATCCGTATTTGTT (site ACTTGCTCTAA) | 0.824
29 | AGAAAAGCATGGACCGGTTTTCCCGGTAATCCGTATTTGCT (site AGAAAAGCTAG) | 2.12
30 | AGAAAAGCATGGACCGGTTTTCCCGGTAATCCGTATTTGCT (site AGAAACGCTAG) | 0.464
31 | AGAAAAGCATGGACCGGTTTTCCCGGTAATCCGTATTTGCT (site AGAAAGGCTAG) | 1.38
32 | AGAAAAGCATGGACCGGTTTTCCCGGTAATCCGTATTTGCT (site AGAAATGCTAG) | 0
33 | AGAAAGACATGGACCGGTTTTCCCGGTAATCCGTATTTGTA (site AGAAAGACTTA) | 2.51
34 | AGAAAGACATGGACCGGTTTTCCCGGTAATCCGTATTTGTA (site AGGAAGACTTG) | 0
35 | AGAAAGCCATGGACCGGTTTTCCCGGTAATCCGTATTTGCT (site AGAAAGACTAG) | 0
36 | AGAAAGCCATGGACCGGTTTTCCCGGTAATCCGTATTTGCT (site AGAAAGCCTAG) | 0
37 | AGAAAGCCATGGACCGGTTTTCCCGGTAATCCGTATTTGCT (site AGAAAGGCTAG) | 0
38 | AGAAAGCCATGGACCGGTTTTCCCGGTAATCCGTATTTGCT (site AGAAAGTCTAG) | 2.3
39 | AGAACAACATGGACCGGTTTTCCCGGTAATCCGTATTTGAT (site AGAACAACTAT) | 1.63
40 | AGAACAACATGGACCGGTTTTCCCGGTAATCCGTATTTGCT (site TTTGTCCCTCC) | 0.00956
41 | AGAACATCATGGACCGGTTTTCCCGGTAATCCGTATTTGCG (site AGAACATCTCG) | 2.3
42 | AGAACCCCATGGACCGGTTTTCCCGGTAATCCGTATTTGGT (site AGAACCCCTAC) | 0.545
43 | AGAACGGCATGGACCGGTTTTCCCGGTAATCCGTATTTGCT (site AGAAAGGCTAG) | 1.08
44 | AGAACGGCATGGACCGGTTTTCCCGGTAATCCGTATTTGCT (site AGAACGGCTAG) | 2.35
45 | AGAACGGCATGGACCGGTTTTCCCGGTAATCCGTATTTGCT (site AGAAGGGCTAG) | 0
46 | AGAACGGCATGGACCGGTTTTCCCGGTAATCCGTATTTGCT (site AGAATGGCTAG) | 0
47 | AGAACTACATGGACCGGTTTTCCCGGTAATCCGTATTTGAC (site AGAACTACTGT) | 2.15
48 | AGAACTACATGGACCGGTTTTCCCGGTAATCCGTATTTGAC (site AGCACTACTGT) | 0

Row | Sequence | recombinant UMI read abundance (log10)
49 | AGAACTACATGGACCGGTTTTCCCGGTAATCCGTATTTGAC (site AGGACTACTGT) | 0.849
50 | AGAACTACATGGACCGGTTTTCCCGGTAATCCGTATTTGAC (site AGTACTACTGT) | 1.37
51 | AGAAGAGCATGGACCGGTTTTCCCGGTAATCCGTATTTGGA (site AGAAGAGCTTC) | 1.81
52 | AGAAGGGCATGGACCGGTTTTCCCGGTAATCCGTATTTGAG (site AGAAGGGCTCT) | 1.64
53 | AGAAGGGCATGGACCGGTTTTCCCGGTAATCCGTATTTGCT (site AGAAAGGCTAG) | 1.73
54 | AGAAGGGCATGGACCGGTTTTCCCGGTAATCCGTATTTGCT (site AGAACGGCTAG) | 0.0144
55 | AGAAGGGCATGGACCGGTTTTCCCGGTAATCCGTATTTGCT (site AGAAGGGCTAG) | 2.64
56 | AGAAGGGCATGGACCGGTTTTCCCGGTAATCCGTATTTGCT (site AGAATGGCTAG) | 0.25
57 | AGAAGTCCATGGACCGGTTTTCCCGGTAATCCGTATTTGAA (site AGAAGTCCTTT) | 1.33
58 | AGACAATCATGGACCGGTTTTCCCGGTAATCCGTATTTGAG (site AGACAATCTCT) | 2.98
59 | AGACAATCATGGACCGGTTTTCCCGGTAATCCGTATTTGTA (site AGACAATCTTA) | 2.63
60 | AGACACTCATGGACCGGTTTTCCCGGTAATCCGTATTTGGT (site AGACACTCTAC) | 2.78
61 | AGACAGTCATGGACCGGTTTTCCCGGTAATCCGTATTTGAT (site AGACAGTCTAT) | 2.94
62 | AGACATCCATGGACCGGTTTTCCCGGTAATCCGTATTTGAC (site AAACATCCTGT) | 0
63 | AGACATCCATGGACCGGTTTTCCCGGTAATCCGTATTTGAC (site ACACATCCTGT) | 0.237
64 | AGACATCCATGGACCGGTTTTCCCGGTAATCCGTATTTGAC (site AGACATCCTGT) | 0
65 | AGACATCCATGGACCGGTTTTCCCGGTAATCCGTATTTGAC (site ATACATCCTGT) | 0
66 | AGACATGCATGGACCGGTTTTCCCGGTAATCCGTATTTGCC (site AGACATGCTGG) | 3.01
67 | AGACGAACATGGACCGGTTTTCCCGGTAATCCGTATTTGTC (site AAACGAACTGA) | 0
68 | AGACGAACATGGACCGGTTTTCCCGGTAATCCGTATTTGTC (site ACACGAACTGA) | 0
69 | AGACGAACATGGACCGGTTTTCCCGGTAATCCGTATTTGTC (site AGACGAACTGA) | 1.35
70 | AGACGAACATGGACCGGTTTTCCCGGTAATCCGTATTTGTC (site ATACGAACTGA) | 0.731
71 | AGACGGGCATGGACCGGTTTTCCCGGTAATCCGTATTTGTC (site AGACGGGCTGA) | 2.3
72 | AGAGCATCATGGACCGGTTTTCCCGGTAATCCGTATTTGGT (site AGAGCATCTAC) | 2.89
